# Experimental data published in US9072778B2, “Treatment regimen for N-MYC, c-MYC, and L-MYC amplified and overexpressed tumors” (UNIVERSITY OF HAWAII, priority 2005, dated 2015).
# Key:
# LAN-1 cells [1] = test: Polyamine pool analysis in inhibitor-treated LAN-1 cells; type: cell-based, human; conditions: DFMO = 5 mM, SAM486A = 10 μM, Spd = 10 μM
# Method: Combined inhibition of both enzymes decreased polyamine pools to various degrees, and exogenous supplementation of Spd (10 μM) to cell cultures led to a substantial increase in Spd. […] In untreated control cells, the levels of Put and Spd decreased during exponential cell growth and proliferation (day 0 to day 3), which is also consistent with a decrease in ODC and AdoMetDC enzyme activities (FIGS. 3d and 3e). Spm levels decreased in untreated LAN-1 cells and remained the same in NMB-7 cells (Table 1).
# Human NB cell lines were provided by Dr. Robert Seeger (LAN-1; University of California, Los Angeles, Calif.), Dr. Nai-Kong Cheung (NMB-7; Memorial Sloan-Kettering Cancer Center, NY), and the American Type Culture Collection (SK-N-SH; ATCC, Manassas, Va.). Cells were maintained in RPMI 1640 (Biosource, Rockeville, Md.) containing 10% heat-inactivated fetal bovine serum (FBS) (Invitrogen, Carlsbad, Calif.), penicillin (100 IU/ml) and streptomycin (100 μg/ml). If cells were treated with exogenous Spd, 1 mM of aminoguanidine was included as an inhibitor of serum polyamine oxidation. […] For growth and proliferation inhibition, polyamine pool, and cell cycle studies, 10 μM Spd was added together with inhibitors, and cells were assayed on days 2 and/or 3.
# Intracellular polyamines were extracted from cell pellets by a method known in the art. In brief, cells were washed and centrifuged. After sonication and centrifugation, 250 μl of supernatant, 100 μl of saturated sodium carbonate, and 300 μl of 25 mg/ml dansyl chloride (5-dimethylamino-naphthalene-1-sulfonyl chloride) (Fluka, Switzerland) were mixed and analyzed via reverse phase HPLC using a C18 reverse-phase analytical column (Waters, Milford, Mass.). The effluent from the column was monitored at 510 nm (excitation at 330 nm). Polyamine levels were determined using appropriate standards. The samples were normalized in 0.2 N sodium hydroxide and the amount of total protein per sample was measured using the Bradford assay (70). Polyamine levels are expressed as nmol per mg of total cellular protein.
# ODC = biological target: T1, ODC (Homo sapiens, UniProt P11926); test: ODC activity after preincubation of cell extracts with DFMO; type: biochemical; conditions: extracts from untreated or DFMO-treated LAN-1 cells, 100 μM DFMO, 30 min at 37° C.
# T1 construct: enzyme activities were measured in cell lysates; endogenous in cells
# T1 sequence (P11926 1-461): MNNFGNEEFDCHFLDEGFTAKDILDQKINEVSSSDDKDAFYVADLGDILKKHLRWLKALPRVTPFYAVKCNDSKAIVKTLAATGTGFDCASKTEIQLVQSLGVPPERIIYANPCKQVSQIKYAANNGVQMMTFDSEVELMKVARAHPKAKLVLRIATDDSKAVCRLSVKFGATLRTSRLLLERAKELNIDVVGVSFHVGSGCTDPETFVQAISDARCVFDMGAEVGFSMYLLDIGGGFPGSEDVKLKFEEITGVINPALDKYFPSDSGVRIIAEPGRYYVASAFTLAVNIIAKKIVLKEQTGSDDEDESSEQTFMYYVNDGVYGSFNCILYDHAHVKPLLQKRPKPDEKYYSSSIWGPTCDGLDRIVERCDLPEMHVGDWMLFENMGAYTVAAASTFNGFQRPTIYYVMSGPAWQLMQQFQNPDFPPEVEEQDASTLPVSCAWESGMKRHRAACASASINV
# Method: ODC and AdoMetDC enzyme activities were determined using a standard assay known in the art. In brief, NB cells were washed twice with ice-cold PBS and harvested in 50 mM sodium phosphate buffer (pH 7.2), 0.1 mM EDTA, 2.5 mM DTT, supplemented with 1× protease inhibitor cocktail (Roche Molecular Biochemicals, Indianapolis, Ind.). […] Cells were lysed by three freeze/thaw cycles and cell lysates were prepared by centrifugation for 20 minutes at 14,000 rpm and 4° C. ODC activity was measured in a reaction mixture that contained 20 μM L-[1-^14C]ornithine (47.70 mCi/mmol; NEN Life Science Products, Boston, Mass.).
# LAN-1 cells [2] = test: Cell growth and proliferation (cell number) and morphology, LAN-1; type: cell-based, human; conditions: LAN-1, 3 days; 5 mM DFMO, 10 μM SAM486A
# Method: (§1) Cell numbers are expressed as percentage (%) of control cell growth and proliferation. Each sample was measured in duplicate and the data represent the mean of three separate determinations±SD. The observed growth and proliferation inhibition of LAN-1 and NMB-7 cells was accompanied by dramatic alterations in cell morphology (FIG. 4b). […] On day 3, both untreated and treated cells were washed free of inhibitor by washing twice with PBS, reseeded in new medium (NM) (solid black arrow) without inhibitors at the starting cell density (dashed black arrow) and the experiment was continued for an additional 7 days. While the untreated LAN-1 and NMB-7 cells grew normally and reached similar cell densities after an additional 3 days (day 6 of the experiment), the initially treated LAN-1 and NMB-7 cells resumed proliferation only slowly and reached about 30% and 58% of control cell growth and proliferation, respectively, on day 10 of the experiment (FIG. 6). Cell numbers were determined using a hemocytometer and trypan blue reagent, and each data point is representative of three separate determinations±SD. […] (not shown). Human NB cell lines were provided by Dr. Robert Seeger (LAN-1; University of California, Los Angeles, Calif.), Dr. Nai-Kong Cheung (NMB-7; Memorial Sloan-Kettering Cancer Center, NY), and the American Type Culture Collection (SK-N-SH; ATCC, Manassas, Va.). […]
# [3] = test system: retinoblastoma protein Rb; test: Western blot of Rb phosphorylation in inhibitor-treated NB cells; type: cell-based, human; conditions: LAN-1 and NMB-7; days 2 and 3
# Method: To further investigate the mechanism that regulates G1 arrest in LAN-1 and NMB-7 cells, and to define the changes in associated protein responses, the cell cycle-related proteins p21^Waf1/Cip1, p27^Kip1, p53, Rb, and MYCN in NB cell lysates were studied. Cells were analyzed on days 1, 2, and 3. Equal amounts of total protein were loaded in all experiments. Proteins were scanned and the ratio of hypophosphorylated Rb (pRb) (lower band):hyperphosphorylated Rb (ppRb) (upper band) was calculated (b). MYCN bands were quantified and normalized relative to β-actin. Values are presented as percentage (%) of controls of day 1, 2 or 3. (c). The data are representative of at least three independent experiments.
# The retinoblastoma protein Rb can be regulated through the action of p27^Kip1. Rb phosphorylation reduces the levels of functional Rb/E2F repressor complexes and activates E2F-responsive promoters important for moving the cell through the G1/S phase of the cell cycle. […] Rb hypophosphorylation was further confirmed with total Rb showing a visible mobility shift from a hyperphosphorylated form (upper band) to a hypophosphorylated form (lower band). […] Hypophosphorylation of Rb is a known consequence of p27^Kip1 induction, and this is in strong agreement with our findings.
# NMB-7 cells = test: Cell growth and proliferation (cell number) and morphology, NMB-7; type: cell-based, human; conditions: NMB-7, 3 days; 5 mM DFMO, 10 μM SAM486A
# Method: as §1
SMILES,"Polyamine pools PUT (LAN-1 cells [1]; LAN-1, Day 2)","Polyamine pools SPD (LAN-1 cells [1]; LAN-1, Day 2)","Polyamine pools SPM (LAN-1 cells [1]; LAN-1, Day 2)","Polyamine pools PUT (LAN-1 cells [1]; LAN-1, Day 3)","Polyamine pools SPD (LAN-1 cells [1]; LAN-1, Day 3)","Polyamine pools SPM (LAN-1 cells [1]; LAN-1, Day 3)",ODC activity after preincubation of extracts (ODC),cell morphology (FIG. 4b) (LAN-1 cells [2]),"Rb phosphorylation (Ser795, Ser807/811) [3]",cell morphology (FIG. 4b) (NMB-7 cells)
"NCCC[C@](N)(C(=O)O)C(F)F [DFMO, α-difluoromethylornithine]",0.3 NMOL/MG TOTAL PROTEIN,2.2 NMOL/MG TOTAL PROTEIN,8.7 NMOL/MG TOTAL PROTEIN,0.0 NMOL/MG TOTAL PROTEIN,1.9 NMOL/MG TOTAL PROTEIN,8.1 NMOL/MG TOTAL PROTEIN,complete loss of ODC activity,changed into spindle-like cells with neurite-like extensions,strong hypophosphorylation of Rb,formed large polynucleate cell aggregates with only very short extensions
"N=C(N)c1cccc2c1CC/C2=N\N=C(N)N [SAM486A, 4-amidinoindan-1-one 2′-amidinohydrazone]",48.5 NMOL/MG TOTAL PROTEIN,5.5 NMOL/MG TOTAL PROTEIN,4.2 NMOL/MG TOTAL PROTEIN,43.7 NMOL/MG TOTAL PROTEIN,5.0 NMOL/MG TOTAL PROTEIN,3.5 NMOL/MG TOTAL PROTEIN,,,much less pronounced,
